In publication PMC11640836, “Aminomethylmorpholino Nucleosides as Novel Inhibitors of PARP1 and PARP2: Experimental and Molecular Modeling Analyses of Their Selectivity and Mechanism of Action” (International Journal of Molecular Sciences, 2024):
Like-named read-outs stand apart in the source and are kept apart here.

Legend:
PARP1 [1] = biological target: T1, PARP1 (Homo sapiens, UniProt P09874); assay: Steady-state kinetic analysis of the PARP1 enzymatic reaction; assay type: biochemical; conditions: for Type of inhibition: Vmax decreased, KM increased
T1 construct: made in house; host or cells: insect cells
Description: The four efficient inhibitors of PARP1 (compounds 8, 12, 13, and 14) were further examined by detailed kinetic experiments to determine the type of inhibition and the inhibition constants. […] The kinetics experiments of the PARylation reaction were performed at varied concentrations of the NAD^+ substrate and three–four different fixed concentrations of the inhibitor. The kinetic parameters of the reaction (Vmax and KM) were calculated by fitting the Michaelis–Menten equation to the kinetic data. The type of inhibition was determined by analyzing the dependences of Vmax and KM on the concentration of the inhibitor in linearizing coordinates (Figure S3). All the compounds had decreased Vmax and increased KM values as the inhibitor concentration increased (panels A−E), indicating a mixed type of inhibition, which was further evidenced by the double reciprocal plots of kinetic data (panel F). From these experiments, the inhibition constants reflecting the affinity of inhibitors to the NAD^+ binding pocket of free enzymes were determined (Table 2).
To determine the apparent maximum rate of enzymatic reaction (Vmax), Michaelis constant (KM), and possible inhibition mechanism, steady-state kinetic experiments were performed at […] fixed concentrations of the substrate, in the absence and presence of different fixed concentrations of the inhibitor. The standard reaction mixtures (10 μL) contained 100 μM, 300 μM, 500 μM, 1 mM, or 2 mM NAD^+; a tested PARP1/PARP2 inhibitor specified for each compound (Figure S3); the recombinant human enzyme PARP1 (200 nM) or murine PARP2 (800 nM); and reaction buffer components (specified in the previous subsection). The reaction was performed as described in the previous subsection. The raw data (kinetic curves) were obtained in three independent experiments and statistically processed with OriginPro 8.6.0 software. […]
F) Graphical representation in double reciprocal plots. The inhibitor concentrations (µM) are indicated right to each panel.
Figure S3. Graphical representation of inhibition type determination for PARP1 and PARP2 with selected compounds.
The Ki and Ki(2) values presented in Table 2 in the main text and Table S1 were calculated using the equations:
Ki = Ci⁄ Ki (2) = CiV Vmax ∗ൗ−1
ቂ(Vmax Km )൘ቃ(Vmax ∗ Km ∗)⁄ −1 where Vmax (Vmax*) – maximal reaction velocity in th e absence (presence) of inhibitor; Km (Km*) – Michaelis constant in the absence (presence) of inhibitor; Ci – the inhibitor concentration.
(also on this page, place not known: Ci )⁄ (Vmax ∗ )⁄൘ቃ − Ki(2) Ci V ∗ൗ− 1 the Vmax KM 3000 0 1 0 250 [ 32 P]ADP-ribose, counts x 10 -3 NAD + ,)
(1 picture or pasted object on this page, not shown here)

[2] = system: HeLa cell line (cervical cancer); assay: Cell culture cytotoxicity assay (EZ4U/MTT), compounds alone and combined with hydrogen peroxide; conditions: for Effect (H2O2 + PARP inhibitor combo) / Combination index (CI): Hela; for Combination index (CI): CompuSyn; for Combination index (CI) with H2O2, as stated in text: different concentrations of H2O2 and inhibitor, Hela cells
Description: The cytotoxicity of the compounds and their combinations with a DNA damaging agent were examined against human cells from the HeLa cell line (cervical cancer) using an EZ4U/MTT colorimetric test (Biomedica, Vienna, Austria). […] The cells were grown in 96-well plates in DMEM medium (Gibco, Thermo Fisher Scientific, Waltham, MA, USA), with 1x GlutaMAX (Gibco, Thermo Fisher Scientific, Waltham, MA, USA), 50 IU/mL penicillin, 50 μg/mL streptomycin (MP Biome-dicals, Santa Ana, CA, USA), and in the presence of 10% fetal bovine serum (Biolot, Saint Petersburg, Russia) in a 5% CO2 atmosphere. After the formation of a 30–50% monolayer, the tested compounds were added to the medium to final concentrations specified in Figure 2 and Figure S4, and the cell culture was monitored for 3 days. […] The combination index (CI) values were calculated using CompuSyn software version 1.0.

PARP1 [3] = biological target: T1, PARP1; assay: PARP1 autopoly(ADP-ribosyl)ation (autoPARylation) enzyme assay with [32P]NAD+; assay type: biochemical
Description: Human recombinant poly(ADP-ribose) polymerase 1 (PARP1) and murine poly(ADP-ribose) polymerase 2 (PARP2) were expressed in insect cells and purified as previously described. Radioactively labeled [^32P]NAD^+ was synthesized from [α-^32P]ATP, according to the previously developed method. The reaction of autopoly(ADP-ribosyl)ation was performed as follows. For PARP1, the reaction mixture contained 50 mM of Tris-HCl, a pH of 8.0, 10 mM of MgCl2, 150 mM of NaCl, 7 mM of β-mercaptoethanol, 2 A260/mL of activated DNA, 0.3 mM of [^32P]NAD^+, and 1 of the tested compounds. The reaction was initiated by adding PARP1 up to 200 nM, and the reaction mixtures were incubated at 37 °C for 2 min. For PARP2, the reaction mixture contained 50 mM of Tris-HCl, a pH of 8.0, 3 mM of spermine, 150 mM of NaCl, 7 mM of β-mercaptoethanol, 2 A260/mL of activated DNA, 0.6 mM of [^32P]NAD^+, and 1 of the tested compounds. The reaction was initiated by adding PARP2 up to 800 nM, and the reaction mixtures were incubated at 37 °C for 5 min. The tested compounds were added at six fixed concentrations, specified for each of them. The reaction was stopped by dropping 10 µL aliquots onto Whatman 1 filter papers soaked in 5% trichloroacetic acid (TCA). The filters were washed 4 times with 150 mL of 5% TCA and dried in the air after the removal of TCA with 90% ethanol. The introduction of radioactivity into the reaction product was quantified using a Typhoon FLA 9500 imager (GE Healthcare, Chicago, IL, USA). The half-maximal inhibitory concentration (IC50) values were determined using a six-point concentration response curve in three independent experiments.

[4] = biological target: T2, PARP2 (supplemented with HPF1 or not) (Mus musculus, UniProt O88554); assay: PARP2 inhibition in the absence and presence of HPF1 (automodification, SDS-PAGE); assay type: biochemical, murine; conditions: 500 nM PARP2, 1 µM HPF1
T2 construct: made in house; host or cells: insect cells (PARP2)
Description: PARP1/PARP2 autopoly(ADP-ribosyl)ation was performed in a standard 20 μL reaction mixture containing 50 mM of Tris-HCl, a pH of 8.0, 100 mM of NaCl, 10 mM of MgCl2, 1 mM of DTT, 10 µM of [^32P]NAD^+, 1 µM of gap-DNA (a 32-mer duplex with a medially located 1-nucleotide gap), 500 nM of PARP1/PARP2 (supplemented with 1 µM of HPF1 or not), and an inhibitor of interest at concentrations specified in Figure 4 and Figure S7. The reaction was initiated by adding a mixture of [^32P]NAD^+ and DNA to a protein-inhibitor mixture pre-assembled on ice. After incubating the mixtures at 37 °C for the indicated time periods, the reactions were terminated by the addition of an SDS-PAGE sample buffer and heating for 2 min at 90 °C. The reaction products were analyzed using 10% SDS-PAGE with the subsequent phosphor imaging of a Coomassie brilliant blue stained gel. Protein bands labeled with [^32P]ADP-ribose were quantified using Quantity One 4.6.7 Basic software. The residual activity (%) was determined as the level of PARP automodification in the presence of an inhibitor normalized to the respective level in the control sample containing no inhibitor.

[5] = mixed-type inhibition, read-out: Ki (affinity for the free enzyme)
[6] = read-out: Ki(2) (affinity for the enzyme complex with NAD+ substrate)
[7] = H2O2 150 μM + inhibitor 1000 μM
[8] = H2O2 250 μM + inhibitor 1000 μM

T1 sequence (P09874 whole entry): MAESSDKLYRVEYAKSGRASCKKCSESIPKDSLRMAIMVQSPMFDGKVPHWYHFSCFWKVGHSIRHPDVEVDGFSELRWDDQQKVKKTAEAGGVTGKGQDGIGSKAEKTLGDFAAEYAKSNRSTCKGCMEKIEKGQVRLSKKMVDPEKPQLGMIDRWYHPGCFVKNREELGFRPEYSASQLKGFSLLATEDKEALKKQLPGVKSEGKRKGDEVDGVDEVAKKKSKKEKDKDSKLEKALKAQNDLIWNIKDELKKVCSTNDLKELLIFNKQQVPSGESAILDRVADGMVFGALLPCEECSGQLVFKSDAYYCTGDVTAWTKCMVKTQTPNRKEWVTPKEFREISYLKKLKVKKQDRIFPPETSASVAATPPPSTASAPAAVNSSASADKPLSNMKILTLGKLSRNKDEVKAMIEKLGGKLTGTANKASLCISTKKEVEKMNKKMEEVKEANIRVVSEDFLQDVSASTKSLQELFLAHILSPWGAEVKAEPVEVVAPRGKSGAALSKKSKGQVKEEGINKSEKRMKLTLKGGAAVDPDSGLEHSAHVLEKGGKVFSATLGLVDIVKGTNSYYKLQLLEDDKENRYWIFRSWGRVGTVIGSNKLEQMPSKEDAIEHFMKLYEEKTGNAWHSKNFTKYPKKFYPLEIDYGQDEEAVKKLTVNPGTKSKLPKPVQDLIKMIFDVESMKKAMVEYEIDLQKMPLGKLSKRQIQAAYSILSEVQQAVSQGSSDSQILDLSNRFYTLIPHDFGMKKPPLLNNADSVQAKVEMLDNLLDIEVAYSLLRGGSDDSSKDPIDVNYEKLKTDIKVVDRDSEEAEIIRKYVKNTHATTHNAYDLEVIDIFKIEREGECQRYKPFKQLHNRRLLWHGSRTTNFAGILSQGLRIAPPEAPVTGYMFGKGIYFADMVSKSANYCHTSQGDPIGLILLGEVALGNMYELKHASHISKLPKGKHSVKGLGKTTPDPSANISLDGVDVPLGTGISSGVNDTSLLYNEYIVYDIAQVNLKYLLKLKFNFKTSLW
T2 sequence (O88554 whole entry): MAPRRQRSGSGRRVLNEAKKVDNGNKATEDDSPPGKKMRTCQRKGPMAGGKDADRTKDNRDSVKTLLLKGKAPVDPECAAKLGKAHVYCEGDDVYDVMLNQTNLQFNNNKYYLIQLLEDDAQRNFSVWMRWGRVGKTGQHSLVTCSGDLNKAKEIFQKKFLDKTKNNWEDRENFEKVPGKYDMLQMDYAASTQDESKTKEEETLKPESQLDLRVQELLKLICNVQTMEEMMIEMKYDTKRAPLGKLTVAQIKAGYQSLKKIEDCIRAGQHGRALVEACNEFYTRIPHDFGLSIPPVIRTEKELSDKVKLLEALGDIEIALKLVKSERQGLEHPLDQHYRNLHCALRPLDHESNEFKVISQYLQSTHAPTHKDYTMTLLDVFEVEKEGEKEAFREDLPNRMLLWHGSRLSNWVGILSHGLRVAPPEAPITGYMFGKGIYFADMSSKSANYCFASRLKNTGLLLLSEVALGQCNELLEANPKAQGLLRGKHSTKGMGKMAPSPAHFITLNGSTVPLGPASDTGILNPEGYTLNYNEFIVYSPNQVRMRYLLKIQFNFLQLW

## NC[C@@H]1CNC[C@H](n2cc(I)c(=O)[nH]c2=O)O1 [Compound 14]
PARP1 [1]
  Type of inhibition: mixed-type inhibition
PARP1 [1]; [5]
  Ki: 15 ± 3 µM
PARP1 [1]; [6]
  Ki: 50 ± 10 µM
[2]; H2O2 30 μM + inhibitor 100 μM
  Effect (H2O2 + PARP inhibitor combo): 0.46
  Combination index (CI): 0.6331
[2]; H2O2 30 μM + inhibitor 1000 μM
  Effect (H2O2 + PARP inhibitor combo): 0.3
  Combination index (CI): 0.3003
[2]; H2O2 50 μM + inhibitor 100 μM
  Effect (H2O2 + PARP inhibitor combo): 0.47
  Combination index (CI): 0.5789
[2]; H2O2 50 μM + inhibitor 1000 μM
  Effect (H2O2 + PARP inhibitor combo): 0.32
  Combination index (CI): 0.2452
[2]; H2O2 90 μM + inhibitor 100 μM
  Effect (H2O2 + PARP inhibitor combo): 0.6
  Combination index (CI): 0.1778
[2]; H2O2 90 μM + inhibitor 1000 μM
  Effect (H2O2 + PARP inhibitor combo): 0.5
  Combination index (CI): 0.04618
[2]; H2O2 150 μM + inhibitor 100 μM
  Effect (H2O2 + PARP inhibitor combo): 0.68
  Combination index (CI): 0.08158
[2]; [7]
  Effect (H2O2 + PARP inhibitor combo): 0.61
  Combination index (CI): 0.01767
[2]; H2O2 250 μM + inhibitor 100 μM
  Effect (H2O2 + PARP inhibitor combo): 0.82
  Combination index (CI): 0.01487
[2]; [8]
  Effect (H2O2 + PARP inhibitor combo): 0.84
  Combination index (CI): 0.00135
[2]
  Combination index (CI) with H2O2, as stated in text: less than one
PARP1 [3]; 0.3 mM [32P]NAD+, means ±SDs of three independent experiments, read-out: IC50, PARP1 activity in the autoPARylation reaction
  IC50: 12 ± 2 µM
[4]
  Impact of HPF1 on the inhibition potency against PARP2: no impact of HPF1

## Cc1cn([C@H]2CNC[C@@H](CN)O2)c(=O)[nH]c1=O [Compound 8]
PARP1 [1]
  Type of inhibition: mixed-type inhibition
PARP1 [1]; [5]
  Ki: 12 ± 2 µM
PARP1 [1]; [6]
  Ki: 40 ± 8 µM
[2]; H2O2 30 μM + inhibitor 100 μM
  Effect (H2O2 + PARP inhibitor combo): 0.15
  Combination index (CI): 2.596
[2]; H2O2 30 μM + inhibitor 1000 μM
  Effect (H2O2 + PARP inhibitor combo): 0.46
  Combination index (CI): 0.6254
[2]; H2O2 50 μM + inhibitor 100 μM
  Effect (H2O2 + PARP inhibitor combo): 0.21
  Combination index (CI): 1.707
[2]; H2O2 50 μM + inhibitor 1000 μM
  Effect (H2O2 + PARP inhibitor combo): 0.59
  Combination index (CI): 0.2634
[2]; H2O2 90 μM + inhibitor 100 μM
  Effect (H2O2 + PARP inhibitor combo): 0.48
  Combination index (CI): 0.375
[2]; H2O2 90 μM + inhibitor 1000 μM
  Effect (H2O2 + PARP inhibitor combo): 0.68
  Combination index (CI): 0.1724
[2]; H2O2 150 μM + inhibitor 100 μM
  Effect (H2O2 + PARP inhibitor combo): 0.61
  Combination index (CI): 0.2716
[2]; [7]
  Effect (H2O2 + PARP inhibitor combo): 0.79
  Combination index (CI): 0.09406
[2]; H2O2 250 μM + inhibitor 100 μM
  Effect (H2O2 + PARP inhibitor combo): 0.94
  Combination index (CI): 0.01519
[2]; [8]
  Effect (H2O2 + PARP inhibitor combo): 0.92
  Combination index (CI): 0.02575
[2]
  Combination index (CI) with H2O2, as stated in text: less than one
PARP1 [3]
  IC50: 10 ± 3 µM
[4]
  Impact of HPF1 on the inhibition potency against PARP2: no impact of HPF1
